The values that follow come from patent US20160022599A1, “System and Method for Fabrication of Uniform Polymer Films Containing Nano and Micro Particles via Continuous Drying Process” (NEW JERSEY INSTITUTE OF TECHNOLOGY, priority 2013, published 2016).

Converted amounts (≈) assume the structure as drawn.

The nature of data set [1]: USP IV flow-through cell dissolution of films in SDS solution. It is filed as physicochemical.
Experimental: The dissolution experiments were performed by cutting out a ⅜ inch diameter sample of film and placing it into a flow-though cell dissolution apparatus (USP IV, Sotax, Switzerland) while 118 mL (5.4 mg/mL) aqueous SDS passed through cells (internal diameter of 22.6 mm) at a rate of 16 mL per minute. The amount of API dissolved from the film was measured over time until 100% of drug was released.
Dissolution experiments were performed using a flow-through cell dissolution apparatus (USP IV, Sotax, Switzerland) with cells of an internal diameter of 22.6 mm. Films were horizontally positioned in the cells with glass beads (1 mm in diameter) filling up the conical part at the bottom of each cell. Glass microfiber filters (GF/D grade, Whatman, Schenectady, N.Y., USA) were used in the filter-head. The temperature was maintained at 37±0.5° C. and a flow rate of 15 mL/min was used.
During testing, the dissolution medium (20 mM SDS solution, 100 mL) was circulated by pumping it through each cell. Six samples were used and the average drug release and the standard deviation were plotted as a function of time.
The dissolution behavior of the stripfilms made using the blend (HPMC and PVP) strip films containing GF nanoparticles was examined using a flow-through cell dissolution apparatus (USP IV, Sotax, Switzerland) with cells of an internal diameter of 22.6 mm. Six circular film samples (having an area of 0.712 cm^2) were punched out of each film and tested. For each film, six samples were horizontally positioned in the six cells with 6.5 g of glass beads (1 mm in diameter) filling up the conical part at the bottom of each cell. Pall HT Tuffryn Membrane Disc Filters (0.2 μm) were used for this study in the filter-head in each experiment. The temperature was maintained at 37±0.5° C., and a flow rate of 16 ml/min was used. During testing, a 100 ml dissolution medium (SDS solution (5.4 mg/ml)) was circulated by pumping it through each cell. […]
The nature of data set [2]: USP IV flow-through cell dissolution of films in deionized water. It is filed as physicochemical. Conditions: DI water media. On the procedure:
Therefore, for the present disclosure, a flow-through cell dissolution apparatus (USP 4, Sotax, Switzerland) with cells of an internal diameter of 22.6 mm was employed. Circular film samples (having an area of 0.712 cm^2) were horizontally positioned in the cells with glass beads (1 mm in diameter) filling the top and bottom of each cell. […] The temperature was maintained at 37±0.5° C. and a flow rate of 16 mL/min was used. Dissolution experiments were carried out using two different media. […] For the second case, deionized (DI) water was used as the media. Six samples were used from each film (S-S8) and the average drug release was plotted as a function of time. To better understand the effect of SDIs on rate of drug release from HPMC films, two new formulations were prepared (formulation S7 and S8). In the first case a high molecular weight HPMC (E4M, Dow chemicals) was used to prepare films loaded with GF nanoparticles. In the second a higher concentration of HPMC ([…]) was used to prepare films containing GF nanoparticles (following the same procedure stated above). The percent drug loading and film thickness were kept same as formulations S-S8 and same dissolution testing protocols were followed. The release kinetics of GF from HPMC films was determined by finding the best fit for the release profiles. […]

The conditions of data set [3]: cited from earlier work.
The conditions of data set [4]: cited from earlier work. This is another data set of the same source.
For data set [5] the following is noted: cited from earlier work. This is another data set of the same source.
Data set [6] can be described thus: Film disintegration time in water. The following applies: ⅝ inch diameter film in 10 ml of water; film about 16 micrometer (Example 8). Type of data set: physicochemical. On the procedure: The drying temperature was kept constant at 60° C. Casting thickness was adjusted to 200 micron thickness using a Doctor blade film applicator. The film was dried for about 30 min, and the dried film thickness was measured to be about 16 micrometer. The disintegration time of dried films was noted by placing a ⅝ inch diameter film in 10 ml of water. The time taken by the film to disintegrate completely was about 10 seconds.

Data set [7] is described as follows: Drug particle size (laser diffraction / DLS) in suspension and after re-dispersion from films. Type of data set: physicochemical. The following applies: for d50, Tip Speed: 11.72 m/s / d50, Tip Speed: 14.66 m/s: WSMM, 100 μm media; for median size of suspension after milling of drug alone: no stabilizers. On the procedure:
An aliquot of the suspensions was dispersed in a 10 ml stabilizer solution and the particle size of the suspensions was measured using a Beckman Coulter LS13320 after milling. The resulting drug suspensions were mixed with a 10% w/w solution of HPMC E15LV and glycerin in a ratio of 1:1, drug suspension to polymer solution. This suspension was stirred for 3 hours with a dual-propeller mixer (McMaster, Catalog no. 3471K5, Los Angeles, Calif., USA). The particle size of the suspensions was measured after mixing with the polymer solution to check for particle growth.
The term “median size” here refers to the 50% vol. passing size of the cumulative volume distribution in LD and cumulant or z-average mean size in DLS. The griseofulvin particle size above 160 nm was measured in LD and the sizes below were measured using DLS. […] The particle size of un-milled drug suspension (in the presence of stabilizers), was also measured and referred as the 0th minute particle size.
GF nanosuspensions were produced via WSMM utilizing a Microcermill (NETZSCH, Fine particle technology LLC, Exton, Pa.) as per previously described methods and processing conditions. HPMC and SDS were chosen as stabilizers. […] At the end of milling, a sample was taken from the holding tank of the mill and dispersed into 15 mL HPMC-SDS stabilizers solution (using a pipette) and the particle size distribution of GF in the sample was then measured using laser diffraction in Coulter LS13320 (Beckman Coulter, Miami, Fla.).
The particle size distribution of GF was measured in suspensions after milling, after mixing with polymer solutions (S-S8) and from re-dispersed films using a laser diffraction technique. […] The size of SDIs (SSG, CCS and CP) was recorded for three cases: after incorporation into HPMC solution, before and after addition of GF nano-suspension and after film re-dispersion. Film re-dispersion was performed by dissolving a small piece of film (about 0.712 cm^2 in area) into 10 mL DI water followed by vortex mixing for 1 min. The same procedure was also followed for formulations S4-S8. Each experiment was performed in triplicate. […]
Particle size measurement of drug nanoparticles in suspension is described herein. To re-disperse drug particles from films, circular punches of film of about 0.71 cm^2 in area were vortex mixed in 3 mL of DI water for 3-5 minutes.
The particle size distribution of GF in the nano-suspensions was measured by laser diffraction in Coulter LS13320 (Beckman Coulter, Miami, Fla., USA). A sample of the suspension was taken at the end of milling from the holding tank of the mill. The sample was dispersed in 15 ml HPMC-SDS stabilizer solution by stirring with a pipette. The sample was added drop-wise until the polarization intensity differential scattering (PIDS) reached 40%.
The same method was used to measure the particles size of GF nanoparticles re-dispersed in water from films. […] The sample particle size was measured after 10 min of magnetic stirring.

By logP is commonly meant the decadic logarithm of the partition coefficient of the neutral form, usually between octanol and water. As a reminder, the pKa is the pH at which an ionisable group is half protonated. Take `NC(=O)N=NC(N)=O` [AZD, azodicarbonamide]: the “dissolution profiles of films with vs without SDS” value is “statistically similar dissolution profiles with and without SDS” in data set [1] (SDS media, similarity and difference factors); “statistically similar dissolution profiles with and without SDS” in data set [2]. In addition, the “Solubility in water at 4° C.” value in data set [3] was 35.0 µg/mL (≈ 302 µM). Also, the logP in data set [4] (Table 23) is 5.8. Moreover, the pKa in data set [5] is reported as 3.9.
On to `COC1=CC(=O)C[C@@H](C)[C@]12Oc1c(Cl)c(OC)cc(OC)c1C2=O` [GF, griseofulvin], for which the “percent griseofulvin dissolved within five minutes” value in data set [1] (0.025 M SDS, about 18 micron HPMC film, 70 nm nanoparticles (Example 8)) is “about 100%”. In addition, the “disintegration time of dried film” value in data set [6] is “about 10 seconds”. In addition, the “particle size stability of nanosuspension on storage” value in data set [7] (7 days of storage) is given as “the particle size was stable after 7 days of storage”. In addition, the “d50, Tip Speed: 11.72 m/s” value in data set [7] (time 0) is on record as 21.845 microns; in data set [7] (time 4), 1.378 microns; in data set [7] (time 8), 0.378 microns; in data set [7] (time 16), 0.149 microns; in data set [7] (time 32), 0.122 microns; in data set [7] (time 64), 0.106 microns. Moreover, the “d50, Tip Speed: 11.72 m/s” value is on record as 0.084 microns in data set [7] (time 120); 0.069 microns in data set [7] (time 180); 0.067 microns in data set [7] (time 240); 0.062 microns in data set [7] (time 300); 0.060 microns in data set [7] (time 360). For the same compound, the “d50, Tip Speed: 14.66 m/s” value is listed as 21.845 microns in data set [7] (time 0); 0.479 microns in data set [7] (time 4); 0.267 microns in data set [7] (time 8); 0.134 microns in data set [7] (time 16); 0.112 microns in data set [7] (time 32); 0.087 microns in data set [7] (time 64). Also, the “d50, Tip Speed: 14.66 m/s” value in data set [7] (time 120) turned out to be 0.069 microns; in data set [7] (time 180), 0.061 microns; in data set [7] (time 240), 0.064 microns; in data set [7] (time 300), 0.059 microns; in data set [7] (time 360), 0.056 microns. For the same compound, in data set [7], the “median size of suspension after milling of drug alone” value is 4 um. Besides, the “final particle size at 360 min of milling” value in data set [7] (tip speed 11.72 m/s) is recorded as 60 nm; in data set [7] (tip speed 14.66 m/s), 56 nm. For the same compound, in data set [3] (as quoted), the solubility in water is 0.7 µg/mL (≈ 1.98 µM). For the same compound, the “partition co-efficient, log P” value in data set [4] (as quoted) is 1.1.
In the case of `COc1ccc2cc([C@H](C)C(=O)O)ccc2c1` [NPX, naproxen], in data set [7], the “median size of nanoparticles milled in the presence of HPMC alone” value is recorded as 147 nm and the “median size of suspension after milling of drug alone” value is recorded as 12 um.
`COC1=CC(=O)C[C@@H](C)[C@]12Oc1c(Cl)c(OC)cc(OC)c1C2=O` [as received powder, griseofulvin]: the “% of GF released in 50 minutes” value in data set [1] (SDS solution […], FIG. 47) is recorded as 40%.
